Test results from a melting point compilation (Tetko et al.; mined from patent text by program, amines drawn as free bases though some values may be those of a salt).

Structure (SMILES)	melting point [°C]
COc1c(Br)cc(Br)c(OC)c1C(=O)O	108 to 110
CCOc1cc(C(CC#N)N2Cc3c(Cl)ccc(NC(=O)C4CC4)c3C2=O)ccc1OC (stereo not drawn)	200 to 202
CCCN1C(=O)CC(C)(C)c2cc(C)c(-c3cc(C=O)ccc3OC(F)(F)F)cc21	219 to 223
O=[N+]([O-])c1ccc2c(c1)N(c1nnn[nH]1)CC2	262 to 270
O=C(O)COc1c(Br)cc(C(=O)c2c(Cc3ccccc3)oc3ccccc23)cc1Br	165 to 167
Cc1cc(COc2ccc(Oc3ccccc3)cc2)on1	48 to 51
CC(C)(C)OC(=O)N1CC2CCCCC(C1)C2C(=O)O (stereo not drawn)	218 to 222
CC(C)(C)OC(=O)CN1CC(c2ccco2)SCC(N)C1=O (stereo not drawn)	90 to 92
O=c1[nH]c2ccccc2cc1Br	263 to 265
COc1cccc(NC(=O)NC2N=C(c3ccccc3)c3ccccc3N(CCN(C)C)C2=O)c1 (stereo not drawn)	213 to 215
CCCCOc1ccc(C(=O)CCCCC(=O)O)cc1	95
CSc1cc(C(C)=O)ccc1OCCCBr	120 to 122
CC(C)(C)N1CN(Cc2ccccc2)C(N)=C2C=NN=C21	138 to 140
O=Cc1cc2ccccc2nc1I	150 to 152
CC1CC2C3CCC4=CC(=O)C=CC4(C)C3(F)C(O)CC2(C)C1(O)C(=O)COC(=O)OCc1ccccc1[N+](=O)[O-] (stereo not drawn)	203 to 204
COc1c(Cl)cc(Cl)cc1-n1c(=O)[nH]c2ccccc21	202 to 203
CCCCCCCCCCCCS(=O)(=O)C(C#N)=C1C=C(N2CCCC2)CC(C)(C)C1	114 to 115
CCOC(=O)C[C@H]1O[C@H](c2ccc(OCC)cc2OC)c2cc(Cl)ccc2N(CC(C)(C)C)C1=O (relative stereo)	164 to 166
CCCCCCCCC(CCCCCCCC)n1c2ccsc2c2sccc21	60
COC(=O)c1ccc(S(C)(=O)=O)cc1N	98.3 to 98.5
O=C(O)c1ncn(Cc2ccc(Cl)c(Cl)c2)c1C(=O)O	258
COC(=O)C(Cl)(Cl)Cc1c(Cl)cc(Cl)cc1Cl	56 to 57
CCCC(=O)c1cnc2c(C)cccc2c1Nc1ccccc1CC	117 to 119
CC(C)c1cc(OCC(=O)N(Cc2ccccc2)Cc2ccccc2)cc2c1C(=O)N(COC(=O)c1c(Cl)cccc1Cl)S2(=O)=O	110 to 112
CCN(CC)CCNc1ccc(CO)c2sc3ccc(O)cc3c(=O)c12	181 to 182

Structure (SMILES)	melting point [°C]
Cc1cc2c(cc1C)C(O)(c1ccccc1Cl)C(=O)N2 (stereo not drawn)	251 to 253
CC(C)(C)[N+]([O-])=Cc1ccc(S(N)(=O)=O)cc1	219
FC(F)(F)COc1ccc(-c2cc(C(F)(F)F)n3cnc(-c4ccncc4)c3n2)cc1C(F)(F)F	269
CC(C)OC(=O)c1cc(-n2c(=O)c3c(n(C)c2=O)CCS3)c(F)cc1Cl	156 to 158
O=C(c1cccs1)C1CCN(Cc2ccccc2)CC1	83.9
CC12CCC3C(CCC4CC=CCC43C)C1CCC2C#N (stereo not drawn)	110 to 112
Cc1nc(NC(=O)c2ccn(-c3ccccc3)c(=O)c2)sc1C(=O)NCc1ccccc1	260 to 262
O=C1C(=O)c2ccc(-c3ccccc3)cc2C2=C1SCC1(CCN(Cc3ccc(F)cc3)CC1)O2	197 to 198
O=Cc1nn(-c2ccc(F)cc2)c2c1CCC2	123 to 125
CC(=O)NCCC(C)c1ccc(-c2ccc(Cl)cc2)cc1 (stereo not drawn)	118 to 120
CCN(CC)S(=O)(=O)c1cc(O)c(N=Nc2c(C)nn(CC)c2O)c2ccccc12	174 to 175
CN(Cc1ccc(Cl)cc1)C(=O)C12CC3CC(CC(C3)C1)C2	65 to 66.5
CCC(O)(c1ccc(O)cc1)c1ccc(F)cc1 (stereo not drawn)	125 to 126
CS(=O)(=O)Nc1cc(C(O)CNC2CCN(c3ccc(C=C4SC(=O)NC4=O)cc3F)CC2)ccc1O (stereo not drawn)	> 225
CC(C)(N)C(=O)NCCn1ccc2ncnc(Nc3ccc(Oc4cccc5sncc45)c(Cl)c3)c21	198
COC(=O)c1nsnc1Br	57 to 58
COc1ccc2c(c1)C(C(=O)N(Cc1ccc(-n3ccnc3)cc1)c1ccc(C(C)C)cc1)CCC2 (stereo not drawn)	111
COc1cc(OCc2ccncc2)ccc1/C=C/c1cc(/C=C/c2ccc3cc[nH]c3c2)n[nH]1	103 to 118
CCNCC1CN(c2c(F)cc3c(=O)c(C(=O)O)cn(C4CC4)c3c2F)CCO1 (stereo not drawn)	210 to 213
COc1cc2cc(C=NO)c(Cl)nc2cc1OC	237 to 238
CCOc1ncc(Cl)cc1C1OC(=O)NC1=O (stereo not drawn)	119 to 124
NC(=O)C1=CCCNC1	122 to 124
CCC(=O)C(=CS(=O)(=O)c1ccc(OS(=O)(=O)c2ccc(C)cc2)cc1)N(C)C	148 to 150
CC(C)Cc1ccc(C(Nc2cccc(C(=O)n3cc(CCCC(=O)O)c4ccccc43)c2)c2ccc(CC(C)C)cc2)cc1	74.8
CCCCN(Cc1ccc(Cl)cc1)c1cncnc1	67 to 68

Structure (SMILES)	melting point [°C]
O=C1NC(=O)c2c1c(-c1ccccc1)cc1[nH]c3ccc(OP(=O)(O)O)cc3c21	285 to 295
CC(=O)Nc1cccc(C(=O)NCc2ccc(-n3c(-c4cccnc4N)nc4cc(C)cnc43)cc2)c1	180 to 181
CCOc1nc(N)nc(C2CC2)n1	103 to 106
CCOC(=O)C1CCN(c2cc(C)nc3c2c(C)cn3-c2c(C)cc(Cl)cc2C)CC1	140 to 142
NC(=O)n1nc(-c2ccccc2)cc1N	255
CN(C)C=CC(=O)C1CC1	55
COc1ccc2c(c1)CCCC2(N)C(=O)O (stereo not drawn)	> 250
COC(=O)COc1ccc(C(=O)NC(=O)Nc2ccc(C(N)=S)cc2)cc1	215 to 218
O=C(Nc1cccnn1)N1CCN(c2cc(-c3ccc(F)cc3)ncn2)CC1	254 to 255
COc1cccc(-c2cc3c4ccccc4ccn3n2)c1	109 to 111
CCn1cccc1C(=O)O	77 to 78
Nc1n[nH]c2ccc(Br)cc12	165 to 175
CCOc1cc(C(C)(C)C)ccc1-c1nc(-c2c(F)cccc2Cl)nn1C	108 to 111
O=Cc1ccc(N(c2ccccc2)c2ccc3c4c(cccc24)CC3)cc1	138 to 141
Cc1cc2c(Cl)nnc(Cl)c2n1Cc1ccccc1	122 to 124
CN(C)CC(C)(C)Oc1ccc(Nc2cc(-c3cccc(-n4ncc5cc(C(C)(C)C)cc(F)c5c4=O)c3CO)nn(C)c2=O)nn1	140 to 145
O=C(O)c1ccc(C(=O)C=Cc2ccccc2)cc1	217 to 220
COC(=O)c1ccccc1-c1n[nH]c(-c2cccc(C(F)(F)F)c2)n1	110 to 112
NC(=O)c1ccc(NC2CCOCC2)cc1	208 to 210
CN1CC=C(c2cccc3[nH]ccc23)CC1	164
CCOCc1nc2c(N)nc3cccnc3c2n1CC1(O)CCOCC1	166 to 167
N#Cc1cnn2c(C(F)(F)F)cc(-c3cccnc3)nc12	193
CCc1nc2c(N)nc3ccccc3c2n1CC(C)(C)OCCS(C)(=O)=O	206 to 209
